For 22 compounds, IC50 results are on record in patent publication EP2030621A1, “Novel substituted pyrimidines as cysteine protease inhibitors” (GLAXO GROUP LIMITED, priority 2007, dated 2009).

As usually defined, the pIC50 is the negative decadic logarithm of the IC50, by convention in mol/L. A higher pIC50 goes with a small IC50.

The target of one test is Falcipain-3 (Plasmodium falciparum, UniProt Q8IIL0). As to the kind of experiment: Falcipain-3 enzymatic assay (fluorogenic peptide substrate, quenched endpoint read). It is filed as biochemical. The procedure:
1 Determination of Falcipain-2, Falcipain-3, Vivapain-2, Cathepsin K Cathepsin S, Cathepsin L, and Cathepsin B proteolytic catalytic activity
Assays for Falcipain-2, Faicipain-3, and Vivapain-2 are carried out with parasitic recombinant enzymes. Cathepsins K, S, L, and B are carried out with human recombinant enzymes. Standard assay conditions for the determination of kinetic constants used a fluorogenic peptide substrate, typically H-D-VLR-AFC (Falcipain-2, Falcipain-3, Vivapain-2), Z-FR-AFC (Cathepsin K, L, B), or KQKLR-AMC (Cathepsin S) and are determined in 100 mM sodium acetate, pH 5.5, containing 10 mM DTT and 0.5 mM CHAPS (Falcipain-2, Falcipain-3, Vivapain-2), and 100 mM sodium acetate, pH 5.5, containing 5 mM L-cysteine, 1mM CHAPS and 5mM EDTA (Cathepsin K, L, B), or 50mM MES, pH 6.5, containing 0.5mM CHAPS, 10mM L-CYS, 5mM EDTA (Cathepsin S). Stock substrate solutions are prepared at 20 mM in DMSO. The activity assays contained 30 uM substrate (Falcipain-2, Falcipain-3, Vivapain-2), 20 uM substrate (Cathepsin K), 25uM substrate (Cathepsin B), 5uM substrate (Cathepsin L), and 30uM substrate (Cathepsin S). All assays contained 1% DMSO. […] All assays are conducted at ambient temperature as end point assays being quenched after 60 minutes with the exception of Cathepsin S at 90 minutes, with 16.6 uM E-64 in 1% DMSO. Product formation (AFC or AMC) is determined from fluorescence (excitation at 405nm; emission at 530nm, AFC, or excitation at 360 nm; emission at 460 nm, AMC) monitored with a LJL Aquest (Molecular Devices) fluorescent plate reader. In the case of kinetic reads (used in mechanism of action studies), the reaction is not quenched but is read in the plate reader every 3 minutes for approximately 90 minutes. In addition, the mechanism of action studies for Falcipain-2 utilize Z-LR-AMC as the substrate. Product formation is determined from the fluorescence of AMC, measured with a LJL Acquest (Molecular Devices) fluorescent plate reader (excitation at 360nm; emission at 460nm).
Potential inhibitors are evaluated using the quenched read (endpoint) method. Assays are carried out in the presence of variable concentrations of test compound. Reactions are initiated by addition of enzyme and substrate to wells containing inhibitor stamped in 100% DMSO. For endpoint assays, the reaction is quenched with the addition of E64. Dose response data is fit to an IC50 curve with preset fitting tools according to equation 1: y = a + (b-a)/(1 + (10^x /10^c ())^d ) [formula] where y is the response at a particular inhibitor concentration x, a is the minimum response value, b is the maximum response value, c is the IC50, and d is the slope of the IC50 curve. […]. For a more direct measurement of the KI and the binding mechanism, we performed mechanism of action studies that included a titration of substrate and inhibitor with a kinetic read. […]

Test [1] concerns Plasmodium falciparum parasite. In words: Whole cell assay: whole cell activity against the parasite. Type of test: cell-based. From the text: Compounds can be evaluated for whole cell actvity against the Plasmadium falciparum parasite according to the procedure described in Sijwali S. and Rosenthal P. J., (2004) Proceedings of the National Academy of Sciences of the United States of America (PNAS) 101(13), 4384-4389 (see in particular "Measurement of Parasite Growth rates and Inhibitor Sensitivity" on page 4385); IC50 values can be calculated as described in Singh A. and Rosenthal P. J., (2001) Antimicrobial Agents and Chemotherapy 45(3), 949-951 (see in particular page 950, first column); synchronised parasites can be prepared as described in Divo A. A. et al., (1985) Protozool. 32, 59-64. 3) In vitro models to evaluate activity against bone metastasis

Each structure is given as a SMILES string. pIC50: −log10 of the molar value. Where a name gives a salt, the structure may show the parent alone. Read-outs that look alike come from different tables or passages of the source.

Falcipain-3, sequence (Q8IIL0 243-492): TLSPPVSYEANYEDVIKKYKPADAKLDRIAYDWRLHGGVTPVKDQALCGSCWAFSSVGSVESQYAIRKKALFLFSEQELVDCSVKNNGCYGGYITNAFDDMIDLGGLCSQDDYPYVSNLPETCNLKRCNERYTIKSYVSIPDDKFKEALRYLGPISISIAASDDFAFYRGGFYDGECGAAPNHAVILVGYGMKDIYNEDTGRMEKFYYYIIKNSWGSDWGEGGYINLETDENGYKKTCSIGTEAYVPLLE

Take `CN1CCN(Cc2ccc(C(=O)NN(c3nc(C#N)ncc3Br)C3CCCC3)cc2)CC1` [Example 1, N'-(5-bromo-2-cyano-4-pyrimidinyl)-N'-cyclopentyl-4-[(4-methyl-1-piperazinyl)methyl]benzohydrazide trifluoroacetate]: the negative logarithm of the IC50 (pIC50) (against Falcipain-3; in test [1] (Plasmodium falciparum)) was 6.82 to 7.82 throughout. On to `CN1CCC(CN2CCN(Cc3cccc(C(=O)NN(c4nc(C#N)ncc4Br)C4CCCC4)c3)CC2)CC1` [Example 15, N'-(5-bromo-2-cyano-4-pyrimidinyl)-N'-cyclopentyl-3-({4-[(1-methyl-4-piperidinyl)methyl]-1-piperazinyl}methyl)benzohydrazide trifluoroacetate], for which the figures for the pIC50 (at Falcipain-3; in test [1] (Plasmodium falciparum)) were 6.82 to 7.82 and 7.82 to 8.60, respectively.

Consider `CN1CCN(C2CCN(Cc3ccc(C(=O)NN(c4nc(C#N)ncc4Br)C4CCOCC4)cc3)CC2)CC1` [Example 29, N'-(5-Bromo-2-cyano-4-pyrimidinyl)-4-{[4-(4-methyl-1-piperazinyl)-1-piperidinyl]methyl}-N'-(tetrahydro-2H-pyran-4-yl)benzohydrazide trifluoroacetate], for which the negative-log IC50 (pIC50) (against Falcipain-3; in test [1] (Plasmodium falciparum)) was 6.82 to 7.82 throughout.

As for `CC(=O)N1CCC(N(NC(=O)c2ccc(CN3CCC(N4CCN(C)CC4)CC3)cc2)c2nc(C#N)ncc2Br)CC1` [Example 38, N'-(1-acetyl-4-piperidinyl)-N'-(5-bromo-2-cyano-4-pyrimidinyl)-4-{[4-(4-methyl-1-piperazinyl)-1-piperidinyl]methyl}benzohydrazide trifluoroacetate], the results for the pIC50 (at Falcipain-3; in test [1] (Plasmodium falciparum)) were 6.82 to 7.82 and 6.60 to 6.82, respectively. As for `CN(Cc1ccc(C(=O)NN(c2nc(C#N)ncc2Cl)C2CCCC2)cc1)C1CCC2(CC1)OCC(C)(C)CO2` [Example 65, N'-(5-chloro-2-cyano-4-pyrimidinyl)-N'-cyclopentyl-4-{[(3,3-dimethyl-1,5-dioxaspiro[5.5]undec-9-yl)(methyl)amino]methyl}benzohydrazide trifluoroacetate], in test [1] (Plasmodium falciparum), the pIC50 was 6.82 to 7.82.

Take `CCN(CC)Cc1ccc(C(=O)NN(c2nc(C#N)ncc2Cl)C2CCCC2)cc1` [Example 66, N'-(5-chloro-2-cyano-4-pyrimidinyl)-N'-cyclopentyl-4-[(diethylamino)methyl]benzohydrazide trifluoroacetate]: the pIC50 in test [1] (Plasmodium falciparum) was 6.82 to 7.82. The same measure, in the same setting: for `CN1CCN(Cc2ccc(C(=O)NN(c3nc(C#N)ncc3Cl)C3CCOCC3)cc2)CC1` [Example 67, N'-(5-chloro-2-cyano-4-pyrimidinyl)-4-[(4-methyl-1-piperazinyl)methyl]-N'-(tetrahydro-2H-pyran-4-yl)benzohydrazide trifluoroacetate] the value was 6.82 to 7.82; for `CCN(Cc1ccc(C(=O)NN(c2nc(C#N)ncc2Cl)C2CCCC2)cc1)C(C)C` [Example 68, N'-(5-chloro-2-cyano-4-pyrimidinyl)-N'-cyclopentyl-4-{[ethyl(1-methylethyl)amino]methyl}benzohydrazide trifluoroacetate], 7.82 to 8.60; for `CCN(Cc1ccc(C(=O)NN(c2nc(C#N)ncc2Cl)C2CCCC2)cc1)C1CCCCC1` [Example 69, N'-(5-chloro-2-cyano-4-pyrimidinyl)-4-{[cyclohexyl(ethyl)amino]methyl}-N'-cyclopentylbenzohydrazide trifluoroacetate], 7.82 to 8.60. Same read-out and setting: for `N#Cc1ncc(Cl)c(N(NC(=O)c2ccc(CN3CCC(O)CC3)cc2)C2CCCC2)n1` [Example 70, N'-(5-chloro-2-cyano-4-pyrimidinyl)-N'-cyclopentyl-4-[(4-hydroxy-1-piperidinyl)methyl]benzohydrazide trifluoroacetate] the value was 6.82 to 7.82.

As to `CN(Cc1ccc(C(=O)NN(c2nc(C#N)ncc2Cl)C2CCCC2)cc1)C(C)(C)Cc1ccccc1` [Example 71, N'-(5-chloro-2-cyano-4-pyrimidinyl)-N'-cyclopentyl-4-{[(1,1-dimethyl-2-phenylethyl)(methyl)amino]methyl}benzohydrazide trifluoroacetate], the pIC50 in test [1] (Plasmodium falciparum) was 6.82 to 7.82. The same measure, in the same setting: the figure for `CC(C)N(Cc1ccc(C(=O)NN(c2nc(C#N)ncc2Cl)C2CCCC2)cc1)C(C)C` [Example 72, trifluoroacetate] is 7.82 to 8.60.

Take `CN(Cc1ccc(C(=O)NN(c2nc(C#N)ncc2Cl)C2CCCC2)cc1)C(C)(C)C` [Example 73, N'-(5-chloro-2-cyano-4-pyrimidinyl)-N'-cyclopentyl-4-{[(1,1-dimethylethyl)(methyl)amino]methyl}benzohydrazide trifluoroacetate]: the pIC50 in test [1] (Plasmodium falciparum) was 7.82 to 8.60.

As to `CCN(C)Cc1ccc(C(=O)NN(c2nc(C#N)ncc2Cl)C2CCCC2)cc1` [Example 74, N'-(5-chloro-2-cyano-4-pyrimidinyl)-N'-cyclopentyl-4-{[ethyl(methyl)amino]methyl}benzohydrazide trifluoroacetate], in test [1] (Plasmodium falciparum), the negative-log IC50 (pIC50) was 6.82 to 7.82.

`CC(C)N(Cc1ccc(C(=O)NN(c2nc(C#N)ncc2Cl)C2CCCC2)cc1)C1CCCCC1` [Example 75, N'-(5-chloro-2-cyano-4-pyrimidinyl)-4-{[cyclohexyl(1-methylethyl)amino]methyl}-N'-cyclopentylbenzohydrazide trifluoroacetate]: in test [1] (Plasmodium falciparum), the pIC50 is 6.82 to 7.82.

On to `CN(Cc1ccc(C(=O)NN(c2nc(C#N)ncc2Cl)C2CCCC2)cc1)CC(O)CO` (centres unmarked) [Example 76, N'-(5-chloro-2-cyano-4-pyrimidinyl)-N'-cyclopentyl-4-{[(2,3-dihydroxypropyl)(methyl)amino]methyl}benzohydrazide trifluoroacetate], for which, in test [1] (Plasmodium falciparum), the negative-log IC50 (pIC50) is 6.82 to 7.82. Take `CN1CCN(c2ncc(C(=O)NN(c3nc(C#N)ncc3Cl)C3CCCC3)s2)CC1` [Example 77]: the negative-log IC50 (pIC50) in test [1] was 6.82 to 7.82. Compound `CN1CCN(c2cccc(C(=O)NN(c3nc(C#N)ncc3Cl)C3CCCC3)n2)CC1` [Example 78, N'-(5-chloro-2-cyano-4-pyrimidinyl)-N'-cyclopentyl-6-(4-methyl-1-piperazinyl)-2-pyridinecarbohydrazide trifluoroacetate] gave a pIC50 in test [1] (Plasmodium falciparum) of 6.82 to 7.82. `CC(=O)N1CCC(N(NC(=O)OC(C)(C)C)c2nc(C#N)ncc2Br)CC1` [Example 79, 1,1-dimethylethyl 2-(1-acetyl-4-plperidinyl)-2-(5-bromo-2-cyano-4-pyrimidinyl)hydrazinecarboxylate]: in test [1], the negative-log IC50 (pIC50) was 6.82 to 7.82. In turn, `CCCN1CCN(c2ccc(C(=O)NN(c3nc(C#N)ncc3Br)C3CCCCC3)cc2)CC1` [Example 80, N'-(5-bromo-2-cyano-4-pyrimidinyl)-N'-cyclohexyl-4-(4-propyl-1-piperazinyl)benzohydrazide trifluoroacetate] had a pIC50 in test [1] (Plasmodium falciparum) of 6.82 to 7.82. Compound `CCN(CCCNC(=O)OC(C)(C)C)Cc1ccc(C(=O)NN(c2nc(C#N)ncc2Cl)C2CCCC2)cc1` [Example 81, 1,1-dimethylethyl {3-[[(4-{[2-(5-chloro-2-cyano-4-pyrimidinyl)-2-cyclopentylhydrazino]carbonyl}phenyl)methyl](ethyl)amino]propyl}carbamate] had a negative logarithm of the IC50 (pIC50) in test [1] (Plasmodium falciparum) of 7.82 to 8.60.

As to `CN1CCN(Cc2ccc(C(=O)NN(CC(C)(C)C)c3nc(C#N)ncc3Br)cc2)CC1` [comparative Example 39, N'-(5-bromo-2-cyano-4-pyrimidinyl)-N'-(2,2-dimethylpropyl)-4-[(4-methyl-1-piperazinyl)methyl]benzohydrazide trifluoroacetate, reference compound], the negative logarithm of the IC50 (pIC50) in test [1] (Plasmodium falciparum) is less than 6.40.
